The target in one experiment is T1, NPY Y1 receptor (Homo sapiens, UniProt P25929).
T1 construct: A membrane sample prepared from SK-N-MC cells derived from human neuroblastoma; endogenous in cells; host or cells: SK-N-MC
T1 sequence (P25929 1-384): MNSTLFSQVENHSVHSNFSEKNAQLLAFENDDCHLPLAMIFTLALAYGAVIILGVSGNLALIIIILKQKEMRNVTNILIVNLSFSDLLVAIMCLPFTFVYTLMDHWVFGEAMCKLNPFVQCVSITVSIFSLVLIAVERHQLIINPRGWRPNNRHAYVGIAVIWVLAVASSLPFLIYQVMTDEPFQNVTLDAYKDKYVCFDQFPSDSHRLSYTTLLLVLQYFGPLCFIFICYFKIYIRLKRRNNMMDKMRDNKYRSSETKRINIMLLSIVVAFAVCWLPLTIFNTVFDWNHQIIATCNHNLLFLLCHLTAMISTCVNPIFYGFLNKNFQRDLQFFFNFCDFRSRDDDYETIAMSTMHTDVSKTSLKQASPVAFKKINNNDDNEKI
Put plainly: NPY Binding Inhibition Test ([125I] peptide YY binding to SK-N-MC cell membranes). The settings on record: SK-N-MC membrane, 25° C., 2 hours, pH 7.4, 20,000 cpm [125I] peptide YY; read-out: IC50 (50% inhibition concentration against specific [125I] peptide YY binding). As to the method:
Pharmacological Test Example 1
(NPY Binding Inhibition Test)
A membrane sample prepared from SK-N-MC cells derived from human neuroblastoma in which the expression of NPY Y1 receptor was reported, was incubated at 25° C. for 2 hours together with a test compound and 20,000 cpm of [^125 I] peptide YY (manufactured by Amersham Company) in an assay buffer (25 mM HEPES buffer solution containing 10 mM of magnesium chloride, 1 mM of phenylmethylsulfonyl fluoride, 0.1% of bacitracin and 0.5% of BSA, pH 7.4), and then subjected to filtration by a glass filter GF/C. After washing with a 50 mM Tris buffer solution containing 0.3% of BSA at pH 7.4, the radiation activity on the glass filter was measured by a gamma counter. The nonspecific binding was measured in the presence of 1 μM of peptide YY and the 50% inhibition concentration (IC50) of the test compound against specific [^125 I] peptide YY binding was obtained [Endocrinology, vol. 131, 2090 (1992)].

The test system of experiment [1] is NPY-induced feeding behavior. Description: Antagonistic Test Against NPY-Induced Feeding Behavior In Vivo. The settings on record: 200 μg/head, into lateral ventricle, simultaneously with NPY (5 μg/head/10 μl); food intake for two hours; Duncan's test, p<0.05 significant. The arrangement: species or system male SD rat. As to the method: Pharmacological Test Example 2
(Antagonistic Test Against NPY-Induced Feeding Behavior In Vivo)
Under pentobarbital anesthesia (intraperitoneal single administration of 200 mg/kg), a chronic guide cannula (outer diameter: 0.8 mm, inner diameter: 0.5 mm, length: 10 mm) was inserted stereotaxically in the right lateral cerebral ventricle of a male SD rat (7 to 8 weeks old, 200 to 300 g) and fixed by a dental resin. The forward end position of the guide cannula was at 0.9 mm posterior to bregma, 1.2 mm to the right of the midline and 1.5 mm ventral to the brain surface, so that when an inner needle was inserted, the forward end extended beyond the forward end of the guide cannula by about 2 mm and reached the lateral ventricle. After a recovery period of about one week, NPY (5 μg/head/10 μl) was administered into the lateral ventricle. The test compound was simultaneously administered as mixed with NPY, and food intake for two hours after the administration was measured. With respect to the obtained result, a multiple comparative determination was carried out by Duncan's test, whereby p<0.05 was taken as significant.

As for `C=CCOC(=O)Nc1cccc(CNc2cc(N3CCOCC3)cc(CSc3nnc(CC)s3)n2)c1` [Example 4, 6-(5-ethyl-1,3,4-thiadiazol-2-ylthiomethyl)-4-morpholino-2-[3-(2-propenyloxycarbonylamino)benzylamino]pyridine], at NPY Y1 receptor, the IC50 worked out at 0.33 nM. In addition, the “increase in food intake induced by NPY” value in experiment [1] is listed as “significantly suppressed the increase in food intake induced by NPY”.
